Source: patent publication US11472791B2 (Incyte Corporation, priority 2019, dated 2022)

The compounds below were run against CDK2/Cyclin E1 (Homo sapiens (Human), UniProt P24941) (assay: CDK2/Cyclin E1 HTRF enzyme activity assay). Details: 1 mM ATP.
Assay type: biochemical
Description: Assays are conducted in white 384-well polystyrene plates in a final reaction volume of 8 μL. […] HTRF signals are read after 1 hour at room temperature on a PHERAstar FS plate reader (BMG Labtech). Data is analyzed with IDBS XLFit and GraphPad Prism 5.0 software using a three or four parameter dose response curve to determine IC50 for each compound.

SMILES	IC50 [nM]
CCN1CCN(Cc2ccc(-n3cc(-c4nc(NC5CCN(S(C)(=O)=O)CC5)ncc4C#N)cn3)c(Cl)c2)CC1 [Example 238, 4-(1-(2-Chloro-4-((4-ethylpiperazin-1-yl)methyl)phenyl)-1H-pyrazol-4-yl)-2-((1-(methylsulfonyl)piperidin-4-yl)amino)pyrimidine-5-carbonitrile]	< 50
CCS(=O)(=O)N1CCC(Nc2ncc(C#N)c(-c3cnn(-c4ccc(CN5CCN(C)CC5)cc4Cl)c3)n2)CC1 [Example 239, 4-(1-(2-chloro-4-((4-methylpiperazin-1-yl)methyl)phenyl)-1H-pyrazol-4-yl)-2-((1-(ethylsulfonyl)piperidin-4-yl)amino)pyrimidine-5-carbonitrile]	< 50
CN1CCN(Cc2ccc(-n3cc(-c4nc(NC5CCN(S(C)(=O)=O)CC5)ncc4C#N)cn3)c(Cl)c2)CC1=O [Example 240, 4-(1-(2-Chloro-4-((4-methyl-3-oxopiperazin-1-yl)methyl)phenyl)-1H-pyrazol-4-yl)-2-((1-(methylsulfonyl)piperidin-4-yl)amino)pyrimidine-5-carbonitrile]	< 50
CCN1CCN(Cc2ccc(-n3cc(-c4nc(NC5CCN(S(=O)(=O)c6cn(C)cn6)CC5)ncc4C#N)cn3)c(Cl)c2)CC1 [Example 241, 4-(1-(2-Chloro-4-((4-ethylpiperazin-1-yl)methyl)phenyl)-1H-pyrazol-4-yl)-2-((1-((1-methyl-1H-imidazol-4-yl)sulfonyl)piperidin-4-yl)amino)pyrimidine-5-carbonitrile]	< 50
Cc1cc(CN2CCN(C)CC2)ccc1-n1cc(-c2nc(NC3CCN(S(=O)(=O)C4CC4)CC3)ncc2C#N)cn1 [Example 242, 2-((1-(Cyclopropylsulfonyl)piperidin-4-yl)amino)-4-(1-(2-methyl-4-((4-methylpiperazin-1-yl)methyl)phenyl)-1H-pyrazol-4-yl)pyrimidine-5-carbonitrile]	< 50
Cc1cc(CN2CCN(C)CC2)ccc1-n1cc(-c2nc(NC3CCN(S(=O)(=O)c4cn(C)cn4)CC3)ncc2C#N)cn1 [Example 243, 2-((1-((1-Methyl-1H-imidazol-4-yl)sulfonyl)piperidin-4-yl)amino)-4-(1-(2-methyl-4-((4-methylpiperazin-1-yl)methyl)phenyl)-1H-pyrazol-4-yl)pyrimidine-5-carbonitrile]	< 50
CN1CCN(Cc2ccc(-n3cc(-c4nc(NC5CCN(S(=O)(=O)c6cn(C)cn6)CC5)ncc4Cl)cn3)c(C#N)c2)CC1 [Example 244, 2-(4-(5-Chloro-2-((1-((1-methyl-1H-imidazol-4-yl)sulfonyl)piperidin-4-yl)amino)pyrimidin-4-yl)-1H-pyrazol-1-yl)-5-((4-methylpiperazin-1-yl)methyl)benzonitrile]	< 50
CCN1CCN(Cc2ccc(-n3cc(-c4nc(NC5CCN(S(=O)(=O)c6cn(C)cn6)CC5)ncc4Cl)cn3)c(C)c2)CC1 [Example 245, 5-Chloro-4-(1-(4-((4-ethylpiperazin-1-yl)methyl)-2-methylphenyl)-1H-pyrazol-4-yl)-N-(1-((1-methyl-1H-imidazol-4-yl)sulfonyl)piperidin-4-yl)pyrimidin-2-amine]	< 50
Cc1cc(CN2CCN(CC3CC3)CC2)ccc1-n1cc(-c2nc(NC3CCN(S(=O)(=O)c4cn(C)cn4)CC3)ncc2Cl)cn1 [Example 246, 5-Chloro-4-(1-(4-((4-(cyclopropylmethyl)piperazin-1-yl)methyl)-2-methylphenyl)-1H-pyrazol-4-yl)-N-(1-((1-methyl-1H-imidazol-4-yl)sulfonyl)piperidin-4-yl)pyrimidin-2-amine]	< 50
Cc1cc(CN2CCN(C(C)C)CC2)ccc1-n1cc(-c2nc(NC3CCN(S(=O)(=O)c4cn(C)cn4)CC3)ncc2Cl)cn1 [Example 247, 5-Chloro-4-(1-(4-((4-isopropylpiperazin-1-yl)methyl)-2-methylphenyl)-1H-pyrazol-4-yl)-N-(1-((1-methyl-1H-imidazole-4-yl)sulfonyl)piperidin-4-yl)pyrimidin-2-amine]	< 50
Cc1cc(CN2CCN(C)C(=O)C2)ccc1-n1cc(-c2nc(NC3CCN(S(=O)(=O)c4cn(C)cn4)CC3)ncc2Cl)cn1 [Example 248, 4-(4-(4-(5-Chloro-2-((1-((1-methyl-1H-imidazol-4-yl)sulfonyl)piperidin-4-yl)amino)pyrimidin-4-yl)-1H-pyrazol-1-yl)-3-methylbenzyl)-1-methylpiperazin-2-one]	< 50
Cc1nc(CN2CCN(C)CC2)ccc1-n1cc(-c2nc(NC3CCN(S(=O)(=O)c4cn(C)cn4)CC3)ncc2Cl)cn1 [Example 249, 5-Chloro-N-(1-((1-methyl-1H-imidazol-4-yl)sulfonyl)piperidin-4-yl)-4-(1-(2-methyl-6-((4-methylpiperazin-1-yl)methyl)pyridin-3-yl)-1H-pyrazol-4-yl)pyrimidin-2-amine]	< 50
CCN1CCN(Cc2ccc(-n3cc(-c4nc(NC5CCN(S(=O)(=O)c6cn(C)cn6)CC5)ncc4Cl)cn3)c(C)n2)CC1 [Example 250, 5-Chloro-4-(1-(6-((4-ethylpiperazin-1-yl)methyl)-2-methylpyridin-3-yl)-1H-pyrazol-4-yl)-N-(1-((1-methyl-1H-imidazol-4-yl)sulfonyl)piperidin-4-yl)pyrimidin-2-amine]	< 50
Cc1nc(CN2CCN(C(C)C)CC2)ccc1-n1cc(-c2nc(NC3CCN(S(=O)(=O)c4cn(C)cn4)CC3)ncc2Cl)cn1 [Example 251, 5-Chloro-4-(1-(6-((4-isopropylpiperazin-1-yl)methyl)-2-methylpyridin-3-yl)-1H-pyrazol-4-yl)-N-(1-((1-methyl-1H-imidazol-4-yl)sulfonyl)piperidin-4-yl)pyrimidin-2-amine]	< 50

The next lines start with the values.

IC50 [nM]	SMILES
< 50	Cc1cc(CN2CCNCC2)ccc1-n1cc(-c2nc(NC3CCN(S(=O)(=O)c4cn(C)cn4)CC3)ncc2C(F)(F)F)cn1 [Example 228, N-(1-((1-Methyl-1H-imidazol-4-yl)sulfonyl)piperidin-4-yl)-4-(1-(2-methyl-4-(piperazin-1-ylmethyl)phenyl)-1H-pyrazol-4-yl)-5-(trifluoromethyl)pyrimidin-2-amine]
< 50	Cc1cc(CN2CCN(C)[C@@H](CO)C2)ccc1-n1cc(-c2nc(NC3CCN(S(=O)(=O)c4cn(C)cn4)CC3)ncc2C(F)(F)F)cn1 [Example 229, (R)-(1-Methyl-4-(3-methyl-4-(4-(2-((1-((1-methyl-1H-imidazol-4-yl)sulfonyl)piperidin-4-yl)amino)-5-(trifluoromethyl)pyrimidin-4-yl)-1H-pyrazol-1-yl)benzyl)piperazin-2-yl)methanol]
< 50	Cc1cc(CN2CCN(C)[C@@H](CC#N)C2)ccc1-n1cc(-c2nc(NC3CCN(S(=O)(=O)c4cn(C)cn4)CC3)ncc2C(F)(F)F)cn1 [Example 230, (S)-2-(1-Methyl-4-(3-methyl-4-(4-(2-((1-((1-methyl-1H-imidazol-4-yl)sulfonyl)piperidin-4-yl)amino)-5-(trifluoromethyl)pyrimidin-4-yl)-1H-pyrazol-1-yl)benzyl)piperazin-2-yl)acetonitrile]
< 50	Cc1cc(CN2CCN(C)CC2)ccc1-n1cc(-c2nc(NC3CCN(S(C)(=O)=O)CC3)ncc2C(F)(F)F)cn1 [Example 231, 4-(1-(2-Methyl-4-((4-methylpiperazin-1-yl)methyl)phenyl)-1H-pyrazol-4-yl)-N-(1-(methylsulfonyl)piperidin-4-yl)-5-(trifluoromethyl)pyrimidin-2-amine]
< 50	CCN1CCN(Cc2ccc(-n3cc(-c4nc(NC5CCN(S(C)(=O)=O)CC5)ncc4C(F)(F)F)cn3)c(C)c2)CC1 [Example 232, 4-(1-(4-((4-Ethylpiperazin-1-yl)methyl)-2-methylphenyl)-1H-pyrazol-4-yl)-N-(1-(methylsulfonyl)piperidin-4-yl)-5-(trifluoromethyl)pyrimidin-2-amine]
< 50	CCS(=O)(=O)N1CCC(Nc2ncc(C(F)(F)F)c(-c3cnn(-c4ccc(CN5CCN(C)CC5)cc4C)c3)n2)CC1 [Example 233, N-(1-(Ethylsulfonyl)piperidin-4-yl)-4-(1-(2-methyl-4-((4-methylpiperazin-1-yl)methyl)phenyl)-1H-pyrazol-4-yl)-5-(trifluoromethyl)pyrimidin-2-amine]
< 50	Cc1cc(CN2CCN(C)CC2)ccc1-n1cc(-c2nc(NC3CCN(S(=O)(=O)C4CC4)CC3)ncc2C(F)(F)F)cn1 [Example 234, N-(1-(Cyclopropylsulfonyl)piperidin-4-yl)-4-(1-(2-methyl-4-((4-methylpiperazin-1-yl)methyl)phenyl)-1H-pyrazol-4-yl)-5-(trifluoromethyl)pyrimidin-2-amine]
< 50	CCN1CCN(Cc2ccc(-n3cc(-c4nc(NC5CCN(S(=O)(=O)c6cn(C)cn6)CC5)ncc4C(F)(F)F)cn3)c(C)c2)CC1 [Example 235, 4-(1-(4-((4-Ethylpiperazin-1-yl)methyl)-2-methylphenyl)-1H-pyrazol-4-yl)-N-(1-((1-methyl-1H-imidazol-4-yl)sulfonyl)piperidin-4-yl)-5-(trifluoromethyl)pyrimidin-2-amine]
< 50	Cc1cc(CN2CCN(CC3CC3)CC2)ccc1-n1cc(-c2nc(NC3CCN(S(=O)(=O)c4cn(C)cn4)CC3)ncc2C(F)(F)F)cn1 [Example 236, 4-(1-(4-((4-(Cyclopropylmethyl)piperazin-1-yl)methyl)-2-methylphenyl)-1H-pyrazol-4-yl)-N-(1-((1-methyl-1H-imidazol-4-yl)sulfonyl)piperidin-4-yl)-5-(trifluoromethyl)pyrimidin-2-amine]
< 50	Cc1cc(CN2CCN(C)C(=O)C2)ccc1-n1cc(-c2nc(NC3CCN(S(=O)(=O)c4cn(C)cn4)CC3)ncc2C(F)(F)F)cn1 [Example 237, 1-Methyl-4-(3-methyl-4-(4-(2-((1-((1-methyl-1H-imidazol-4-yl)sulfonyl)piperidin-4-yl)amino)-5-(trifluoromethyl)pyrimidin-4-yl)-1H-pyrazol-1-yl)benzyl)piperazin-2-one]
